# Experimental data as given in PMC8760490, “Discovery of novel furanylbenzamide inhibitors that target oncogenic tyrosine phosphatase SHP2 in leukemia cells” (The Journal of Biological Chemistry, 2021).
# Molecular target: T1, SHP2cat (Homo sapiens, UniProt Q06124)
# T1 construct: the SHP2 catalytic domain (SHP2cat; residues 248–527); made in house
# T1 sequence (Q06124 248-527): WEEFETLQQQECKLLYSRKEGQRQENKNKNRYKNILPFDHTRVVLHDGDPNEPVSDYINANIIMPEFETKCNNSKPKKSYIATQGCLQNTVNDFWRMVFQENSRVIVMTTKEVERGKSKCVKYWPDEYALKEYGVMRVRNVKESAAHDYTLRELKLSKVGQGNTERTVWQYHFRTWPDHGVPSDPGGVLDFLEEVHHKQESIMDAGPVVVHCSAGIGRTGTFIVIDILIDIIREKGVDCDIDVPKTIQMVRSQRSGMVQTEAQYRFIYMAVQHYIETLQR
# Assay: OMFP fluorescence phosphatase inhibition assay, SHP2cat
# Format: biochemical
# Conditions: substrate OMFP at Km (50 μM); read-out: IC50 against SHP2cat with OMFP
# Source text: We confirmed specific and dose-dependent binding of inhibitors to SHP2 by PTS, which monitors the thermal stability of a target protein in vitro ([40]). […] In addition, we confirmed the inhibitory activity of several furanylbenzamide inhibitors, including the top two compounds SBI-2130 and SBI-4668, in SHP2cat inhibition assays using the alternative substrate 3-O-methylfluorescein phosphate (OMFP), which features a peak fluorescence emission that is red-shifted by ∼75 nm compared with DiFMUP. The Km value of OMFP for SHP2cat was determined to be 50 μM. An OMFP fluorescence intensity–based assay was used to perform inhibitor dose–response experiments and determine IC50 values.
# SHP2 inhibitors were tested at RT in a 384-well plate format standard phosphatase fluorescence intensity assay using DiFMUP (Invitrogen/Thermo Fisher Scientific) as a substrate and a total reaction volume of 25 μl. […] Fluorescence intensity was measured in kinetic mode (every minute for 7 or 10 min) using a Tecan Spark Multimode Microplate Reader (Tecan) with an excitation wavelength of 360 nm and an emission wavelength of 460 nm. The initial rates were determined from the linear progression curves of the PTP reaction. […] IC50 values were calculated from the corrected initial rates by nonlinear regression using the program GraphPad Prism, version 8 (GraphPad Software, Inc) software. […]
row,SMILES,IC50 [nM]
1,"Nc1ccc(NC(=O)c2cc(-c3ccc(/C=C4\Sc5ccccc5C4=O)o3)ccc2O)cc1 [SBI-2130, (Z)-N-(4-Aminophenyl)-2-hydroxy-5-(5-((3-oxobenzo[b]thiophen-2(3H)-ylidene)methyl)furan-2-yl)benzamide]",440
2,"O=C(Nc1ccccc1)c1cc(-c2ccc(/C=C3\Sc4ccccc4C3=O)o2)ccc1O [SBI-4668, (Z)-2-Hydroxy-5-(5-((3-oxobenzo[b]thiophen-2(3H)-ylidene)methyl)furan-2-yl)-N-phenylbenzamide]",1200
